Results as given in ChEMBL document CHEMBL3351666, “Nocatriones A and B, photoprotective tetracenediones from a marine-derived Nocardiopsis sp” (J Nat Prod, 2014).

How the values were obtained:
[1] = Cytotoxicity against human ScienCell 2320 cells assessed as reduction in cell viability at 1 to 10 uM incubated for 72 hrs by MTT assay; format: cell-based; details: sciencell 2320, 72 h
[2] = Cytotoxicity against human MCTT MC1233 cells exposed to 144 mJ/cm2 UVB irradiation assessed as reduction in cell viability at 1 to 10 uM incubated for 72 hrs by MTT assay; format: cell-based; details: mctt mc1233, 72 h
MCTT MC1233 = assay: Reduction in UVB radiation-induced MMP1 secretion in human MCTT MC1233 cells exposed to 144 mJ/cm2 UVB irradiation by ELISA method; format: functional, cell-based
[3] = Reduction in UVB radiation-induced MMP1 secretion in human MCTT MC1233 cells at 10 uM exposed to 144 mJ/cm2 UVB irradiation by ELISA method; format: functional; details: MCTT MC1233, light or radiation study
[4] = Reduction in MMP1 secretion in human ScienCell 2320 cells at 10 uM by ELISA method; format: functional
[5] = Reduction in UVB radiation-induced MMP1 secretion in human ScienCell 2320 cells at 10 uM exposed to 144 mJ/cm2 UVB irradiation by ELISA method; format: functional; details: ScienCell 2320, light or radiation study
[6] = Cytotoxicity against human ScienCell 2320 cells exposed to 144 mJ/cm2 UVB irradiation assessed as reduction in cell viability at 1 to 10 uM incubated for 72 hrs by MTT assay; format: cell-based; details: sciencell 2320, 72 h
[7] = Cytotoxicity against human MCTT MC1233 cells assessed as reduction in cell viability at 1 to 10 uM incubated for 72 hrs by MTT assay; format: cell-based; details: mctt mc1233, 72 h
[8] = Reduction in MMP1 secretion in human MCTT MC1233 cells at 5 uM by ELISA method; format: functional
[9] = Reduction in MMP1 secretion in human MCTT MC1233 cells at 10 uM by ELISA method; format: functional

Compound	Activity [1]	Activity [2]	inhibition (MCTT MC1233)	inhibition at 10 µM [3]	inhibition at 10 µM [4]	inhibition at 10 µM [5]	Activity [6]	Activity [7]	inhibition at 5 µM [8]	inhibition at 10 µM [9]
Cc1c(-c2cc(O)cc(=O)o2)c(O)cc2cc3c(c(O)c12)C(=O)c1c(O)cc(O)cc1C3=O	Non-toxic	Non-toxic	Dose-dependent effect	18%	93%	91%	Non-toxic	Non-toxic		
Cc1c2c(cc(O)c1-c1cc(O)cc(=O)o1)C(=O)c1cc3cc(O)cc(O)c3c(O)c1C2=O	Non-toxic	Non-toxic	Dose-dependent effect	65%	99%	99%	Non-toxic	Non-toxic	58%	83%
